From US20250276982A1, “KRAS INHIBITORS” (ASCENTAGE PHARMA (SUZHOU) CO., LTD., priority 2021, published 2025) come the findings set out here.

The structures appear in SMILES notation.

Holding throughout (format): cell-based
In test [1] the test system is GP2d cells. Kind of test: Cellular proliferation assay in GP2d cells (CellTiterGlo luminescent cell viability assay). Particulars: 72 hours treatment, CellTiter-Glo. As for the experimental part: Example 32: Cellular Proliferation Assay in GP2d Cells
The inhibitory effect of test compounds on cellular proliferation was determined using CellTiterGlo® luminescent cell viability assay (Promega) following manufacturer's instruction.
GP2d cells (ECACC #95090715) were cultured in DMEM medium supplemented with 10% fetal bovine serum, 10 U/ml penicillin and 10 ug/ml streptomycin. Cells were plated in 96-well plates at a density of 2000 cells/well and allowed attach for […]. Then the cells were treated with various concentrations of test compounds for 72 hours. CellTiter-Glo® Reagent was added to wells and incubated for 10 minutes at room temperature. The plates were read on GloMax® 96 Microplate Luminometer or compatible microplate readers. The percentage of cellular viability was calculated as: […]
For orientation: ATP-based viability assays read luminescence as a measure of living cells.

The test system of test [2] is phosphorylation of ERK1/2 in AGS cells with KRAS-G12D mutation. The test can be described thus: Detection of phosphorylation of ERK1/2 in AGS cells (AlphaLISA SureFire Ultra p-ERK 1/2 (Thr202/Tyr204) assay). Particulars: Homo sapiens, 3 hours, AlphaLISA p-ERK 1/2 (Thr202/Tyr204). The method, then: Example 33: Detection of Phosphorylation of ERK1/2 in AGS Cells
The inhibitory effect of test compounds on phosphorylation of ERK1/2 were determined using the AlphaLISA® SureFire® Ultra™ p-ERK 1/2 (Thr202/Tyr204) assay following the manufacturer's instructions (ALSU-PERK-A500, PerkinElmer Inc.).
AGS cells (ATCC CRL-1739) with KRAS-G12D mutation were cultured in DMEM medium supplemented with 10% fetal bovine serum, 10 U/ml penicillin and 10 μg/ml streptomycin. Cells were plated in 96-well plates at a density of 4000 cells/well. After 16-18 hours incubation, various concentrations of compounds were added to cells with a final concentration of 0.2% DMSO. After 3 hours, the medium was removed, and the cells were lysed in 50 uL lysis buffer. 10 uL of lysate was transferred to a half area 96-well plate, 5 ul of acceptor mix was added to wells and incubated at room temperature for 1 hour, then 5 ul of donor mix was added to wells. After 1 hour incubation at room temperature, the plate was read on an Alpha Technology-compatible plate reader, using standard AlphaLISA settings. The assays were carried out in duplicates.

In test [3] the test system is p-ERK in AGS cells. The test can be described thus: p-ERK assay in AGS cells (fixed cells, anti-p-ERK / β-Actin antibodies, IR imaging). Particulars: Homo sapiens, 3 h at 37° C., p-ERK detected by antibody with β-Actin, IR fluorescence. As for the experimental part: The expression of p-ERK was detected in this assay. At first, the AGS cells (40000 cells/well) were seeded in 96-well plate culture overnight and treated with KRAS-G12D compounds inhibitors at concentrations of 1, 0.33, 0.11, 0.03, 0.01, 0.004, 0.001, 0.0004, 0.0001 μM for 3 h at 37° C. Then, add an equal volume (100 μL) of 8% paraformaldehyde solution to fix and crosslink the cells to the microplate for 15 minutes. Add 100 μL of 1× permeabilization solution to wells for 30 min and add 100 μL of 1× blocking solution for 2 h. Wash with PBS 3 times after each reaction. At last, Incubation with primary antibody (Anti-mouse β-Actin and Anti-rabbit p-ERK) and secondary antibody (Goat anti-Mouse IgG H&L IRDye 800CW and Goat anti-Rabbit IgG H&L IRDye 680RW) for 2 h, As appropriate, image the microplate with an IR scanner or develop the HRP labeled microplate and read it with a spectrophotometer. The fluorescence signal was monitored using a microplate reader (Azure biosystems, Sapphire biomolecular imager) using excitation and emission wavelengths of 680 and 800 nm, respectively. Export data. The inhibitor dose-reponse curves were analyzed using normalized IC50 regression curve fitting with control based normalization.

Turning to `Oc1cc(-c2ncc3c(N4C[C@H]5CC[C@@H](C4)N5)nc(OC[C@@]45CCCN4C[C@H](F)C5)nc3c2F)c2c(ccc3ccoc32)c1` [Example 1, 9-(4-((1R,5S)-3,8-diazabicyclo[3.2.1]octan-3-yl)-8-fluoro-2-(((2R,7aS)-2-fluorotetrahydro-1H-pyrrolizin-7a(5H)-yl)methoxy)pyrido[4,3-d]pyrimidin-7-yl)naphtho[1,2-b]furan-7-ol], the IC50 in test [1] came to 680 nM; in test [2] it was 408 nM; in test [3], 107 nM.
On the same counts, the results for `Oc1cc(-c2ncc3c(N4C[C@H]5CC[C@@H](C4)N5)nc(OC[C@@]45CCCN4C[C@H](F)C5)nc3c2F)c2c3c(ccc2c1)CCC3` [Example 2, 9-(4-((1R,5S)-3,8-diazabicyclo[3.2.1]octan-3-yl)-8-fluoro-2-(((2R,7aS)-2-fluorotetrahydro-1H-pyrrolizin-7a(5H)-yl)methoxy)pyrido[4,3-d]pyrimidin-7-yl)-2,3-dihydro-1H-cyclopenta[a]naphthalen-7-ol] are 130 nM, 78 nM and 11 nM.
With `Oc1cc(-c2ncc3c(N4C[C@H]5CC[C@@H](C4)N5)nc(OC[C@@]45CCCN4C[C@H](F)C5)nc3c2F)c2c3c(ccc2c1)CCCC3` [Example 16, 4-(4-((1R,5S)-3,8-diazabicyclo[3.2.1]octan-3-yl)-8-fluoro-2-(((2R,7aS)-2-fluorotetrahydro-1H-pyrrolizin-7a(5H)-yl)methoxy)pyrido[4,3-d]pyrimidin-7-yl)-5,6,7,8-tetrahydrophenanthren-2-ol], the 50% inhibitory concentration (IC50) in test [1] was 849 nM; in test [3] it was 5 nM.
`O=C1CCc2ccc3cc(O)cc(-c4ncc5c(N6C[C@H]7CC[C@@H](C6)N7)nc(OC[C@@]67CCCN6C[C@H](F)C7)nc5c4F)c3c21` [Example 17, 9-(4-((1R,5S)-3,8-diazabicyclo[3.2.1]octan-3-yl)-8-fluoro-2-(((2R,7aS)-2-fluorotetrahydro-1H-pyrrolizin-7a(5H)-yl)methoxy)pyrido[4,3-d]pyrimidin-7-yl)-7-hydroxy-2,3-dihydro-1H-cyclopenta[a]naphthalen-1-one]: the values for the IC50 in test [1] and in test [3] were 16000 nM and 272 nM, respectively.
As for `OCC1Cc2ccc3cc(O)cc(-c4ncc5c(N6C[C@H]7CC[C@@H](C6)N7)nc(OC[C@@]67CCCN6C[C@H](F)C7)nc5c4F)c3c2C1` (stereo partly drawn) [Example 18, 9-(4-((1R,5S)-3,8-diazabicyclo[3.2.1]octan-3-yl)-8-fluoro-2-(((2R,7aS)-2-fluorotetrahydro-1H-pyrrolizin-7a(5H)-yl)methoxy)pyrido[4,3-d]pyrimidin-7-yl)-2-(hydroxymethyl)-2,3-dihydro-1H-cyclopenta[a]naphthalen-7-ol], the IC50 in test [1] came out at 17000 nM; in test [3], 240 nM.
`Oc1cc(-c2ncc3c(N4C[C@H]5CC[C@@H](C4)N5)nc(OC[C@@]45CCCN4C[C@H](F)C5)nc3c2F)c2c(c1)c(Cl)c1n2CCC1` [Example 20, 5-(4-((1R,5S)-3,8-diazabicyclo[3.2.1]octan-3-yl)-8-fluoro-2-(((2R,7aS)-2-fluorotetrahydro-1H-pyrrolizin-7a(5H)-yl)methoxy)pyrido[4,3-d]pyrimidin-7-yl)-9-chloro-2,3-dihydro-1H-pyrrolo[1,2-a]indol-7-ol]: the values for the IC50 in test [1] and in test [3] were 2410 nM and 226 nM, respectively.
On the same counts, the results for `Oc1cc(-c2ncc3c(N4C[C@H]5CC[C@@H](C4)N5)nc(OC[C@@]45CCCN4C[C@H](F)C5)nc3c2F)c2c3c(ccc2c1)COC3` [Example 21, 9-(4-((1R,5S)-3,8-diazabicyclo[3.2.1]octan-3-yl)-8-fluoro-2-(((2R,7aS)-2-fluorotetrahydro-1H-pyrrolizin-7a(5H)-yl)methoxy)pyrido[4,3-d]pyrimidin-7-yl)-1,3-dihydronaphtho[1,2-c]furan-7-ol] are 263 nM and 52 nM.
The corresponding values for `Oc1cc(-c2ncc3c(N4C[C@H]5CC[C@@H](C4)N5)nc(OCC4(CN5C6CCC5COC6)CC4)nc3c2F)c2c3c(ccc2c1)CCC3` [Example 23, 9-(2-((1-((3-oxa-8-azabicyclo[3.2.1]octan-8-yl)methyl)cyclopropyl)methoxy)-4-((1R,5S)-3,8-diazabicyclo[3.2.1]octan-3-yl)-8-fluoropyrido[4,3-d]pyrimidin-7-yl)-2,3-dihydro-1H-cyclopenta[a]naphthalen-7-ol] are 908 nM and 33 nM.
The corresponding values for `Oc1cc(-c2ccc3c(N4C[C@H]5CC[C@@H](C4)N5)nc(OCC4(CN5CC6COCC6C5)CC4)nc3c2F)c2c3c(ccc2c1)CCC3` (stereo partly drawn) [Example 24, 9-(4-((1R,5S)-3,8-diazabicyclo[3.2.1]octan-3-yl)-8-fluoro-2-((1-((tetrahydro-1H-furo[3,4-c]pyrrol-5 (3H)-yl)methyl)cyclopropyl)methoxy)quinazolin-7-yl)-2,3-dihydro-1H-cyclopenta[a]naphthalen-7-ol] are 120 nM and 24 nM.
As to `C[C@@H]1COCCN1CC1(COc2nc(N3C[C@H]4CC[C@@H](C3)N4)c3ccc(-c4cc(O)cc5ccc6c(c45)CCC6)c(F)c3n2)CC1` [Example 25, 9-(4-((1R,5S)-3,8-diazabicyclo[3.2.1]octan-3-yl)-8-fluoro-2-((1-(((R)-3-methylmorpholino)methyl)cyclopropyl)methoxy)quinazolin-7-yl)-2,3-dihydro-1H-cyclopenta[a]naphthalen-7-ol], the results for the half-inhibitory concentration (IC50) in test [1] and in test [3] were 303 nM and 18 nM, respectively.
The corresponding values for `Oc1cc(-c2ccc3c(N4C[C@H]5CC[C@@H](C4)N5)nc(OCC4(CN5CCOCC5)CC4)nc3c2F)c2c3c(ccc2c1)CCC3` [Example 26, 9-(4-((1R,5S)-3,8-diazabicyclo[3.2.1]octan-3-yl)-8-fluoro-2-((1-(morpholinomethyl)cyclopropyl)methoxy)quinazolin-7-yl)-2,3-dihydro-1H-cyclopenta[a]naphthalen-7-ol] are 195 nM and 39 nM.
With `Oc1cc(-c2ccc3c(N4C[C@H]5CC[C@@H](C4)N5)nc(OCC4(CN5C6CCC5COC6)CC4)nc3c2F)c2c3c(ccc2c1)CCC3` [Example 27, 9-(2-((1-((3-oxa-8-azabicyclo[3.2.1]octan-8-yl)methyl)cyclopropyl)methoxy)-4-((1R,5S)-3,8-diazabicyclo[3.2.1]octan-3-yl)-8-fluoroquinazolin-7-yl)-2,3-dihydro-1H-cyclopenta[a]naphthalen-7-ol], the IC50 in test [1] was found to be 370 nM; in test [3], 131 nM.
On the same counts, the results for `Oc1cc(-c2c(F)cc3c(N4C[C@H]5CC[C@@H](C4)N5)nc(OCC4(CN5C6CCC5COC6)CC4)nc3c2F)c2c3c(ccc2c1)CCC3` [Example 28, 9-(2-((1-((3-oxa-8-azabicyclo[3.2.1]octan-8-yl)methyl)cyclopropyl)methoxy)-4-((1R,5S)-3,8-diazabicyclo[3.2.1]octan-3-yl)-6,8-difluoroquinazolin-7-yl)-2,3-dihydro-1H-cyclopenta[a]naphthalen-7-ol] are 253 nM and 87 nM.
The corresponding values for `Oc1cc(-c2c(F)cc3c(N4C[C@H]5CC[C@@H](C4)N5)nc(OCC4(CN5CCOCC5)CC4)nc3c2F)c2c3c(ccc2c1)CCC3` [Example 29, 9-(4-((1R,5S)-3,8-diazabicyclo[3.2.1]octan-3-yl)-6,8-difluoro-2-((1-(morpholinomethyl)cyclopropyl)methoxy)quinazolin-7-yl)-2,3-dihydro-1H-cyclopenta[a]naphthalen-7-ol] are 273 nM and 44 nM.

Broadly, the IC50 is the concentration that gives 50% inhibition. Higher therefore signals weaker potency.
